Measurements taken from PubChem BioAssay AID1918998 (Molecular Pharmacology Branch, DTP, NCI, 2023).
pIC50: −log10 of the molar value.

System: 521955-158-R2-J5-PDC complex spheroid growth
Test: Anticancer human tumor 521955-158-R2-J5-PDC patient-derived pancreatic carcinoma cell line growth inhibition [AhR]
Details: for pIC50: curve of first compound; for viability, T/C: stronger effect = lower value
Method in brief: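 Complex tumor spheroids co-cultured with HUVEC and human MSC stroma; AhR antagonists tested in combination with standard-of-care and investigational agents. Top concentration at or near clinical Cmax (else 10 microM), half-log dilutions; growth expressed as percent test/control.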

[1] = second compound 0.1 µM, first compound 0.0316 µM
[2] = second compound 0.1 µM, first compound 0.1 µM
[3] = second compound 0.1 µM, first compound 0.316 µM
[4] = second compound 0.1 µM, first compound 1 µM
[5] = second compound 0.1 µM, first compound 3.16 µM
[6] = second compound 0.1 µM, first compound 10 µM
[7] = second compound 0.316 µM, first compound 0.0316 µM
[8] = second compound 0.316 µM, first compound 0.1 µM
[9] = second compound 0.316 µM, first compound 0.316 µM
[10] = second compound 0.316 µM, first compound 1 µM
[11] = second compound 0.316 µM, first compound 3.16 µM
[12] = second compound 0.316 µM, first compound 10 µM
[13] = second compound 1 µM, first compound 0.0316 µM
[14] = second compound 1 µM, first compound 0.1 µM
[15] = second compound 1 µM, first compound 0.316 µM
[16] = second compound 1 µM, first compound 1 µM
[17] = second compound 1 µM, first compound 3.16 µM
[18] = second compound 1 µM, first compound 10 µM
[19] = second compound 3.16 µM, first compound 0.0316 µM
[20] = second compound 3.16 µM, first compound 0.1 µM
[21] = second compound 3.16 µM, first compound 0.316 µM
[22] = second compound 3.16 µM, first compound 1 µM
[23] = second compound 3.16 µM, first compound 3.16 µM
[24] = second compound 3.16 µM, first compound 10 µM
[25] = second compound 10 µM, first compound 0.0316 µM
[26] = second compound 10 µM, first compound 0.1 µM
[27] = second compound 10 µM, first compound 0.316 µM
[28] = second compound 10 µM, first compound 1 µM
[29] = second compound 10 µM, first compound 3.16 µM
[30] = second compound 10 µM, first compound 10 µM
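For viability, T/C in this document: spheroids mix tumor cells with HUVEC endothelium and human MSC stroma; luminescence taken as viability surrogate after a week of drug exposure.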

pIC50 (second compound 0.1 µM)	pIC50 (second compound 0.316 µM)	pIC50 (second compound 1 µM)	pIC50 (second compound 3.16 µM)	pIC50 (second compound 10 µM)	Structure (SMILES)	viability, T/C [1] [%]	viability, T/C [2] [%]	viability, T/C [3] [%]	viability, T/C [4] [%]	viability, T/C [5] [%]	viability, T/C [6] [%]	viability, T/C [7] [%]	viability, T/C [8] [%]	viability, T/C [9] [%]	viability, T/C [10] [%]	viability, T/C [11] [%]	viability, T/C [12] [%]	viability, T/C [13] [%]	viability, T/C [14] [%]	viability, T/C [15] [%]	also measured
5.26	5.21	5.24	5.27	5.99	Nc1ccccc1NC(=O)c1ccc(CNC(=O)OCc2cccnc2)cc1 + Cc1cncc(-c2nc(NCCc3c[nH]c4ccccc34)c3ncn(C(C)C)c3n2)c1	108	106	125	94.7	68.4	31.5	117	134	126	103	77.7	30.4	133	139	155	viability, T/C [16]: 108%; viability, T/C [17]: 73.4%; viability, T/C [18]: 30.5%; viability, T/C [19]: 138%; viability, T/C [20]: 143%; viability, T/C [21]: 135%; viability, T/C [22]: 110%; viability, T/C [23]: 69.9%; viability, T/C [24]: 27.2%; viability, T/C [25]: 135%; viability, T/C [26]: 125%; viability, T/C [27]: 101%; viability, T/C [28]: 48.8%; viability, T/C [29]: 17.7%; viability, T/C [30]: 2.9%
5.23	5.16	< 5.00	5.18	5.76	O=C(C=Cc1cccc(S(=O)(=O)Nc2ccccc2)c1)NO + Cc1cncc(-c2nc(NCCc3c[nH]c4ccccc34)c3ncn(C(C)C)c3n2)c1	119	115	138	93.6	63.7	39.8	131	129	125	101	66.5	42	146	132	137	viability, T/C [16]: 108%; viability, T/C [17]: 73.6%; viability, T/C [18]: 51.4%; viability, T/C [19]: 135%; viability, T/C [20]: 143%; viability, T/C [21]: 147%; viability, T/C [22]: 106%; viability, T/C [23]: 61.3%; viability, T/C [24]: 43.5%; viability, T/C [25]: 151%; viability, T/C [26]: 112%; viability, T/C [27]: 108%; viability, T/C [28]: 69.2%; viability, T/C [29]: 25.2%; viability, T/C [30]: 5.33%
< 5.00	< 5.00	< 5.00	< 5.00	< 5.00	O=C(c1cc(Cc2n[nH]c(=O)c3ccccc23)ccc1F)N1CCN(C(=O)C2CC2)CC1 + Cc1cncc(-c2nc(NCCc3c[nH]c4ccccc34)c3ncn(C(C)C)c3n2)c1	106	97.8	113	106	98	92.4	101	114	109	102	86.9	99.5	119	116	115	viability, T/C [16]: 99.4%; viability, T/C [17]: 104%; viability, T/C [18]: 89.2%; viability, T/C [19]: 142%; viability, T/C [20]: 133%; viability, T/C [21]: 121%; viability, T/C [22]: 135%; viability, T/C [23]: 115%; viability, T/C [24]: 126%; viability, T/C [25]: 139%; viability, T/C [26]: 156%; viability, T/C [27]: 167%; viability, T/C [28]: 117%; viability, T/C [29]: 114%; viability, T/C [30]: 123%
